Assay: xn = mol fraction of the nth substance listed
Conditions: Liquid, Pycnometric method

CCCCBr [1-bromobutane] + O=C=O
mass density [kg/m3]
Conditions	316.1 K	317.9 K
7540 kPa, x1 = 0.1495	–	964
7770 kPa, x1 = 0.1495	–	967
7950 kPa, x1 = 0.0989	–	850
7990 kPa, x1 = 0.1495	–	970
8090 kPa, x1 = 0.0989	–	853
8230 kPa, x1 = 0.0683	–	777
8230 kPa, x1 = 0.1495	–	974
8330 kPa, x1 = 0.0461	–	703
8340 kPa, x1 = 0.0683	–	780
8370 kPa, x1 = 0.0461	–	705
8370 kPa, x1 = 0.0989	–	859
8450 kPa, x1 = 0.0245	–	491
8450 kPa, x1 = 0.0461	–	712
8450 kPa, x1 = 0.1495	–	977
8460 kPa, x1 = 0.0245	–	493
8480 kPa, x1 = 0.0245	–	499
8490 kPa, x1 = 0.0683	–	786
8500 kPa, x1 = 0.0245	–	506
8510 kPa, x1 = 0.0245	593	–
8530 kPa, x1 = 0.0245	–	512
8550 kPa, x1 = 0.0245	–	518
8550 kPa, x1 = 0.0461	–	721
8560 kPa, x1 = 0.0245	604	–
8570 kPa, x1 = 0.0245	–	525
8600 kPa, x1 = 0.0245	–	532
8620 kPa, x1 = 0.0245	615	540
8630 kPa, x1 = 0.0683	–	791
8650 kPa, x1 = 0.0245	–	547
8650 kPa, x1 = 0.0989	–	865
8660 kPa, x1 = 0.1495	–	980
8680 kPa, x1 = 0.0461	–	731
8690 kPa, x1 = 0.0245	627	555
8720 kPa, x1 = 0.0245	–	563
8770 kPa, x1 = 0.0245	–	571
8780 kPa, x1 = 0.0245	639	–
8790 kPa, x1 = 0.0683	–	797
8800 kPa, x1 = 0.0245	–	579
8820 kPa, x1 = 0.0245	–	583
8840 kPa, x1 = 0.0245	–	588
8840 kPa, x1 = 0.0461	–	741
8870 kPa, x1 = 0.0245	–	589
8880 kPa, x1 = 0.0245	652	–
8890 kPa, x1 = 0.0245	–	597
8920 kPa, x1 = 0.0245	–	601
8940 kPa, x1 = 0.0683	–	802
8950 kPa, x1 = 0.0989	–	871
8960 kPa, x1 = 0.0245	–	608
8960 kPa, x1 = 0.0461	–	748
8990 kPa, x1 = 0.1495	–	984
9000 kPa, x1 = 0.0245	665	–
9100 kPa, x1 = 0.0461	–	756
9130 kPa, x1 = 0.0683	–	808
9150 kPa, x1 = 0.0245	683	–
9250 kPa, x1 = 0.1495	–	987
9270 kPa, x1 = 0.0461	–	764
9300 kPa, x1 = 0.0989	–	877
9330 kPa, x1 = 0.0683	–	814
9340 kPa, x1 = 0.0245	694	–
9530 kPa, x1 = 0.0461	–	774
9540 kPa, x1 = 0.0683	–	820
9560 kPa, x1 = 0.0245	709	–
9580 kPa, x1 = 0.1495	–	990
9670 kPa, x1 = 0.0989	–	884
9770 kPa, x1 = 0.0683	–	826
9810 kPa, x1 = 0.0461	–	785
9850 kPa, x1 = 0.0245	725	–
9860 kPa, x1 = 0.1495	–	993
10030 kPa, x1 = 0.0683	–	832
10050 kPa, x1 = 0.0989	–	890
10160 kPa, x1 = 0.0461	–	796
10200 kPa, x1 = 0.0245	741	–
10240 kPa, x1 = 0.0245	743	–
10240 kPa, x1 = 0.1495	–	997
10290 kPa, x1 = 0.0245	746	–
10310 kPa, x1 = 0.0683	–	838
10350 kPa, x1 = 0.0245	750	–
10500 kPa, x1 = 0.0989	–	897
10560 kPa, x1 = 0.1495	–	1000
10590 kPa, x1 = 0.0461	–	809
10630 kPa, x1 = 0.0683	–	845
10930 kPa, x1 = 0.1495	–	1004
10940 kPa, x1 = 0.0683	–	850
10950 kPa, x1 = 0.0989	–	903
11060 kPa, x1 = 0.0461	–	821
11270 kPa, x1 = 0.1495	–	1007
11310 kPa, x1 = 0.0683	–	858
11470 kPa, x1 = 0.0989	–	910
11600 kPa, x1 = 0.0461	–	833
11690 kPa, x1 = 0.0683	–	863
11700 kPa, x1 = 0.1495	–	1011
11870 kPa, x1 = 0.0683	–	867
11890 kPa, x1 = 0.0461	–	839

Source: the NIST ThermoML archive (doi:10.1021/je900387e)
